EC50 and IC50 data for nine compounds are collected here from patent US9944641B2, “Isoquinolinone derivatives useful in the treatment of cancer” (PIERRE FABRE MEDICAMENT, priority 2014, dated 2018).

One test deals with MOLM-13 cells. The test can be described thus: Antiproliferative activity assay (ATPLite), MOLM-13. The conditions noted are these: Homo sapiens, MOLM-13 (AML, FLT3-ITD), 72 h, read-out: Inhibition of proliferation (EC50) MOLM13. Format: cell-based. The protocol: (§1) Cell lines MV4-11 and MOLM-13 are grown according to conditions depicted in Table 2 following the provider recommendations.
(§2) Assays are being run into 96-well plates. Cells are passaged at Day 0, seeded at Day 1 and added with increasing quantities of the compounds to evaluate. Plates are incubated for 72 h at 37° C. under a 5% CO2 atmosphere.
(§3) Half-logarithmic dilutions from compounds stock solutions in DMSO (Sigma #D8414) were done in order to obtain 0.1% DMSO solutions.
(§4) Cellular viability is measured at Day 4 with the ATPLite (Perkin Elmer #6016947) kit.
On the technique in general: ATP-based viability assays read luminescence as a measure of living cells.

The next test concerns the target T1, FLT3 D835Y (Homo sapiens, UniProt P36888, D835Y).
T1 construct: purchased Merck Millipore 14-610
T1 sequence (P36888 27-993 D835Y): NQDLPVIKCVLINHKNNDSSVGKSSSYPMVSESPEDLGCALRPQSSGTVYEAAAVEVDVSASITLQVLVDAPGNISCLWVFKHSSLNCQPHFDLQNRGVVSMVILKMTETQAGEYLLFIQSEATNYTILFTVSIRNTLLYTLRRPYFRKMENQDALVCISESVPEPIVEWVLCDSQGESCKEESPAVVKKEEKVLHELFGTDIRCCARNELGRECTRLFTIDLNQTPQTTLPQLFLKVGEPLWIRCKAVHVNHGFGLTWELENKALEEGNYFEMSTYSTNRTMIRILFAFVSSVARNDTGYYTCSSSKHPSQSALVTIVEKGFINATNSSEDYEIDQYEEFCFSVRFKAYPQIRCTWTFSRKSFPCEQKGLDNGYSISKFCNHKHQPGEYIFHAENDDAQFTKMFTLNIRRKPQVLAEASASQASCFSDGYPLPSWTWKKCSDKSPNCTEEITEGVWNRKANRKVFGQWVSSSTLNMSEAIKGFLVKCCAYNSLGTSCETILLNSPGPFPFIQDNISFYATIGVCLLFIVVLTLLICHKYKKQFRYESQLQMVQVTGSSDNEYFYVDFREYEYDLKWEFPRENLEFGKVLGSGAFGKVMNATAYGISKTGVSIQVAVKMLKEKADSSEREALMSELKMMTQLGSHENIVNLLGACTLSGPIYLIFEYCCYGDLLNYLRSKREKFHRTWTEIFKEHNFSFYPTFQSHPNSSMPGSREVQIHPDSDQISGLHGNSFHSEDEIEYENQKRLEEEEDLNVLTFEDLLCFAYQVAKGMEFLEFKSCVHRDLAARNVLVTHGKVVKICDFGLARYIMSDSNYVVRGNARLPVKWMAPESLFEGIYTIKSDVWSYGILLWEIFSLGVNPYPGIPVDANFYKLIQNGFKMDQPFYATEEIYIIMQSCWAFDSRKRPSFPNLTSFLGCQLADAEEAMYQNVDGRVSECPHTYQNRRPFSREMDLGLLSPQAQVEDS
The test can be described thus: Lanthascreen TR-FRET enzymatic assay, FLT3 D835Y. It counts as binding. The conditions noted are these: 1 hour at 25° C., 1% DMSO, read-out: Enzymology (IC50) FLT3 D835Y. The protocol: (§5) Recombinant FLT3 (#PV3182), JAK2 (#PV4210) and JAK3 (#PV3855) enzymes were purchased from Life Technologies. FLT3-ITD (#0778-0000-1) and FLT3^D835Y (#14-610) were respectively purchased from Proquinase and Merck Millipore.
(§6) The assays were conducted in 384-well plates based on Life Technologies Lanthascreen® TR-FRET methodologies.
FLT3-ITD or FLT3^D835Y assays: 15 nM of FLT3-ITD or FLT3^D835Y, 3 nM of the 236 kinase tracker (Life Technologies #PV5592) and 6 nM of the Europium-tagged anti-GST Lanthascreen® antibody are mixed into 15 μL total volume reaction mixture.
(§7) IC50s were determined from a 8-point dose-response curve spanning a >1000 fold concentration range using a 10 mM compound solution stock into pure DMSO (Sigma #D8418). The overall DMSO concentrations of tested solutions were 1%.
(§8) IC50s were generated with the software Prism (Graphpad).

A further test has as its system MV4-11 cells. As to the kind of experiment: Antiproliferative activity assay (ATPLite), MV4-11. It counts as cell-based. Conditions: Homo sapiens, MV4-11 (AML, FLT3-ITD), 72 h, read-out: Inhibition of proliferation (EC50) MV411. Here is the method:
as §1, §2, §3, §4

A further test has as its target T2, FLT3 wt (Homo sapiens, UniProt P36888).
T2 construct: purchased Life Technologies PV3182
T2 sequence (P36888 564-993 limits assumed): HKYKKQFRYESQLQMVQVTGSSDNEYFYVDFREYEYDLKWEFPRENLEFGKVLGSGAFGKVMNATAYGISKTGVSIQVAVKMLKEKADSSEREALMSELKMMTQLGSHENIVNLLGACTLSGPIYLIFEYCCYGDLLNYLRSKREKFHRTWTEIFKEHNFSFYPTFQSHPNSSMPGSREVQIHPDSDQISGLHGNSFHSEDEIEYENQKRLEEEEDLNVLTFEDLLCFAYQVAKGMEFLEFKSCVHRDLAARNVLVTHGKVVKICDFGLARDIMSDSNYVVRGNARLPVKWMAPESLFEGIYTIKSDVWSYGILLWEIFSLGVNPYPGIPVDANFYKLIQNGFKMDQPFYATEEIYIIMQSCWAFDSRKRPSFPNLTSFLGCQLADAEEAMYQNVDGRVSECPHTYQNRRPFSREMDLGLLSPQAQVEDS
The test can be described thus: Lanthascreen TR-FRET enzymatic assay, FLT3. It counts as binding. The conditions noted are these: recombinant FLT3, 1 hour at 25° C., 1% DMSO; read-out: Enzymology (IC50) FLT3 wt. The protocol:
as §5, §6
FLT3 assays: 15 nM of FLT3, 3 nM of the 236 kinase tracker (Life Technologies #PV5592) and 6 nM of the Europium-tagged anti-His Lanthascreen® antibody are mixed into 15 μL total volume reaction mixture.
as §7, §8
(In general: In TR-FRET formats the signal depends on donor and acceptor labels being close together.)

As for `COc1cc2c(cc1N)c(=O)n(C)c1cnc(Nc3cc(N)cc(F)c3)nc21` [Compound C26, 8-amino-2-((3-amino-5-fluorophenyl)amino)-9-methoxy-5-methylpyrimido [5,4-c]isoquinolin-6(5H)-one], the EC50 in the test with MOLM-13 cells and in the test with MV4-11 cells was 25 to 100 nM each time. Also, the results for the IC50 on FLT3 D835Y and at FLT3 wt were 25 to 100 nM and 100 to 1000 nM, respectively.
As to `Cn1c(=O)c2cc(N)ccc2c2nc(Nc3cccc(N)c3)ncc21` [Compound C2, 8-amino-2-((3-aminophenyl)amino)-5-methylpyrimido[5,4-c]isoquinolin-6(5H)-one], the EC50 in the test with MOLM-13 cells and in the test with MV4-11 cells was 25 to 100 nM throughout. In addition, the IC50 is below 25 nM on FLT3 D835Y and 25 to 100 nM at FLT3 wt.
Consider `COc1cc2c(cc1N)c(=O)n(C)c1cnc(Nc3ccc(OCCN4CCCC4)cc3)nc21` [Compound C42, 8-amino-9-methoxy-5-methyl-2-((4-(2-(pyrrolidin-1-yl)ethoxy)phenyl)amino) pyrimido[5,4-c]isoquinolin-6(5H)-one], for which the EC50 in the test on MOLM-13 cells and in the test with MV4-11 cells was 100 to 1000 nM in each case. The IC50 at FLT3 D835Y was below 25 nM; on FLT3 wt, 100 to 1000 nM.
Consider `Cn1c(=O)c2cc(N)ccc2c2nc(Nc3ccc(OCCN4CCCC4)cc3)ncc21` [Compound C34, 8-amino-5-methyl-2-((4-(2-(pyrrolidin-1-yl)ethoxy)phenyl)amino)pyrimido[5,4-c]isoquinolin-6(5H)-one], for which the EC50 with MOLM-13 cells and in the test on MV4-11 cells was 100 to 1000 nM each time. Besides, the IC50 at FLT3 D835Y is below 25 nM; at FLT3 wt, 25 to 100 nM.
With `COc1cc2c(cc1N)c(=O)n(C)c1cnc(Nc3ccc(N4CCN(C)CC4)cc3)nc21` [Compound C10, 8-amino-9-methoxy-5-methyl-2-((4-(4-methylpiperazin-1-yl)phenyl)amino) pyrimido[5,4-c]isoquinolin-6(5H)-one], the EC50 with MOLM-13 cells was 100 to 1000 nM; in the test with MV4-11 cells it was below 25 nM. Also, the values for the IC50 at FLT3 D835Y and at FLT3 wt were below 25 nM and 25 to 100 nM, respectively.
For the compound `Cn1c(=O)c2cc(N)ccc2c2nc(Nc3ccc(F)c(N)c3)ncc21` [Compound C22, 8-amino-2-((3-amino-4-fluorophenyl)amino)-5-methylpyrimido[5,4-c]isoquinolin-6(5H)-one], the EC50 with MOLM-13 cells and in the test on MV4-11 cells was 100 to 1000 nM in each case. The figures for the IC50 at FLT3 D835Y and at FLT3 wt were below 25 nM and 100 to 1000 nM, respectively.
As for `CN1CCN(c2ccc(Nc3ncc4c(n3)c3ccc(N)cc3c(=O)n4C)cc2)CC1` [Compound C4, 8-amino-5-methyl-2-((4-(4-methylpiperazin-1-yl)phenyl)amino)pyrimido[5,4-c]isoquinolin-6(5H)-one], the EC50 with MOLM-13 cells and in the test with MV4-11 cells was below 25 nM throughout. For the same compound, the values for the half-maximal inhibitory concentration (IC50) at FLT3 D835Y and on FLT3 wt were below 25 nM and 25 to 100 nM, respectively.
In the case of `CN1CCN(c2cccc(Nc3ncc4c(n3)c3ccc(N)cc3c(=O)n4C)c2)CC1` [Compound C6, 8-amino-5-methyl-2-((3-(4-methylpiperazin-1-yl)phenyl)amino)pyrimido[5,4-c]isoquinolin-6(5H)-one], the EC50 with MOLM-13 cells and in the test on MV4-11 cells was 25 to 100 nM each time. In addition, the IC50 was below 25 nM on FLT3 D835Y and 25 to 100 nM on FLT3 wt.
`COc1cc2c(cc1N)c(=O)n(C)c1cnc(Nc3ccc(F)c(N)c3)nc21` [Compound C28, 8-amino-2-((3-amino-4-fluorophenyl)amino)-9-methoxy-5-methylpyrimido [5,4-c]isoquinolin-6(5H)-one]: the EC50 with MOLM-13 cells was in the range of 100 to 1000 nM; with MV4-11 cells it was 25 to 100 nM. Moreover, the IC50 at FLT3 D835Y was in the range of 25 to 100 nM; on FLT3 wt, 100 to 1000 nM.

For orientation: IC50 means the concentration at which inhibition is half-maximal.
